According to patent US11117900B2 (Vertex Pharmaceuticals Incorporated, priority 2012, dated 2021):

Test system: HCT116 colorectal cancer cells
Test: Cisplatin sensitization assay (96 h MTS cell viability);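 note: compound concentration needed to lower the IC50 of Cisplatin alone by a set fold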
Assay type: cell-based
Conditions: Cisplatin sensitization value
Method in brief: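 HCT116 cells were dosed simultaneously with compound and cisplatin as a full matrix of 2-fold serial dilutions from 10 μM top final concentration. Incubation was 96 h at 37° C., 5% CO2, followed by 1 h with MTS reagent for the viability read-out. Sensitization values were binned into +++, ++ and + categories.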

Row | Compound | Cisplatin Sensitization Assay
1 | COC1CCN(c2ccncc2NC(=O)c2c(N)nn3cc(Cl)cnc23)CC1 [I-N-73, 2-amino-6-chloro-N-(4-(4-methoxypiperidin-1-yl)pyridin-3-yl)pyrazolo[1,5-a]pyrimidine-3-carboxamide] | +++ (Compounds with a Cisplatin sensitization value of <0.02 μM are marked with “+++.”)
2 | N#CCc1cnc2c(C(=O)Nc3cnccc3OCC(F)(F)F)c(N)nn2c1 [I-O-34, 2-amino-6-(cyanomethyl)-N-(4-(2,2,2-trifluoroethoxy)pyridin-3-yl)pyrazolo[1,5-a]pyrimidine-3-carboxamide] | ++ (Compounds with a Cisplatin sensitization value >0.02 μM but <0.2 μM are marked with “++.”)
3 | CC(=O)N1CCCC12CCN(c1ccncc1NC(=O)c1c(N)nn3cc(F)cnc13)CC2 [I-N-262, N-(4-(1-acetyl-1,8-diazaspiro[4.5]decan-8-yl)pyridin-3-yl)-2-amino-6-fluoropyrazolo[1,5-a]pyrimidine-3-carboxamide] | +++ (Compounds with a Cisplatin sensitization value of <0.02 μM are marked with “+++.”)
4 | Nc1nn2cc(F)cnc2c1C(=O)Nc1cncc(F)c1N1CCC(C(=O)N2CCN3CCCC3C2)CC1 (stereo not shown) [I-G-10, 2-amino-6-fluoro-N-(5-fluoro-4-(4-(octahydropyrrolo[1,2-a]pyrazine-2-carbonyl)piperidin-1-yl)pyridin-3-yl)pyrazolo[1,5-a]pyrimidine-3-carboxamide] | +++ (Compounds with a Cisplatin sensitization value of <0.02 μM are marked with “+++.”)
5 | Nc1nn2cc(F)cnc2c1C(=O)Nc1cncc(F)c1N1CCN2CCOC[C@@H]2C1 [I-N-137, (S)-2-amino-6-fluoro-N-(5-fluoro-4-(hexahydropyrazino[2,1-c][1,4]oxazin-8(1H)-yl)pyridin-3-yl)pyrazolo[1,5-a]pyrimidine-3-carboxamide] | ++ (Compounds with a Cisplatin sensitization value >0.02 μM but <0.2 μM are marked with “++.”)
6 | Nc1nn2cc(F)cnc2c1C(=O)Nc1cncc(F)c1N1CCC(C(=O)N2CCC(N3CCCCC3)C2)CC1 (stereo not shown) [I-G-64, 2-amino-6-fluoro-N-(5-fluoro-4-(4-(3-(piperidin-1-yl)pyrrolidine-1-carbonyl)piperidin-1-yl)pyridin-3-yl)pyrazolo[1,5-a]pyrimidine-3-carboxamide] | +++ (Compounds with a Cisplatin sensitization value of <0.02 μM are marked with “+++.”)
7 | CN1CCC(Oc2ccncc2NC(=O)c2c(N)nn3cc(CC#N)cnc23)CC1 [I-O-23, 2-amino-6-(cyanomethyl)-N-(4-((1-methylpiperidin-4-yl)oxy)pyridin-3-yl)pyrazolo[1,5-a]pyrimidine-3-carboxamide] | +++ (Compounds with a Cisplatin sensitization value of <0.02 μM are marked with “+++.”)
8 | CNC1CN(C(=O)C2CCN(c3c(F)cncc3NC(=O)c3c(N)nn4cc(F)cnc34)CC2)C1 [I-G-34, 2-amino-6-fluoro-N-(5-fluoro-4-(4-(3-(methylamino)azetidine-1-carbonyl)piperidin-1-yl)pyridin-3-yl)pyrazolo[1,5-a]pyrimidine-3-carboxamide] | +++ (Compounds with a Cisplatin sensitization value of <0.02 μM are marked with “+++.”)
9 | Nc1nn2cc(F)cnc2c1C(=O)Nc1cncc(F)c1N1CCN(S(=O)(=O)C2COC2)CC1 [I-N-201] | +++ (Compounds with a Cisplatin sensitization value of <0.02 μM are marked with “+++.”)
10 | Nc1nn2cc(F)cnc2c1C(=O)Nc1cncc(F)c1N1CCC(C(=O)N2CC3CNCC3C2)CC1 (stereo not shown) [I-G-51, 2-amino-6-fluoro-N-(5-fluoro-4-(4-(octahydropyrrolo[3,4-c]pyrrole-2-carbonyl)piperidin-1-yl)pyridin-3-yl)pyrazolo[1,5-a]pyrimidine-3-carboxamide] | +++ (Compounds with a Cisplatin sensitization value of <0.02 μM are marked with “+++.”)
11 | Cc1ncc(-c2ccncc2NC(=O)c2c(N)nn3cc(F)cnc23)n1C [I-C-77, 2-amino-N-(4-(1,2-dimethyl-1H-imidazol-5-yl)pyridin-3-yl)-6-fluoropyrazolo[1,5-a]pyrimidine-3-carboxamide] | +++ (Compounds with a Cisplatin sensitization value of <0.02 μM are marked with “+++.”)
12 | Nc1nn2cc(Cl)cnc2c1C(=O)Nc1cnccc1OC1CNC1 [I-O-73, 2-amino-N-(4-(azetidin-3-yloxy)pyridin-3-yl)-6-chloropyrazolo[1,5-a]pyrimidine-3-carboxamide] | + (Compounds with a Cisplatin sensitization value >0.2 μM but <5 μM are marked with “+.”)
13 | Nc1nn2cc(F)cnc2c1C(=O)Nc1cncc(C2CC2)c1N1CCN([C@@H]2CCOC2)CC1 [I-N-119, (R)-2-amino-N-(5-cyclopropyl-4-(4-(tetrahydrofuran-3-yl)piperazin-1-yl)pyridin-3-yl)-6-fluoropyrazolo[1,5-a]pyrimidine-3-carboxamide] | ++ (Compounds with a Cisplatin sensitization value >0.02 μM but <0.2 μM are marked with “++.”)
14 | CN1CCN(c2c(F)cncc2NC(=O)c2c(N)nn3cc(Cl)cnc23)CC1 [I-N-14, 2-amino-6-chloro-N-(5-fluoro-4-(4-methylpiperazin-1-yl)pyridin-3-yl)pyrazolo[1,5-a]pyrimidine-3-carboxamide] | +++ (Compounds with a Cisplatin sensitization value of <0.02 μM are marked with “+++.”)
15 | Nc1nn2cc(F)cnc2c1C(=O)Nc1cnccc1N1CCN2CCC[C@H]2C1 [I-N-21, (S)-2-amino-6-fluoro-N-(4-(hexahydropyrrolo[1,2-a]pyrazin-2(1H)-yl)pyridin-3-yl)pyrazolo[1,5-a]pyrimidine-3-carboxamide] | +++ (Compounds with a Cisplatin sensitization value of <0.02 μM are marked with “+++.”)
16 | Nc1nn2cc(F)cnc2c1C(=O)Nc1cnccc1N1CCC(N2CCCC2=O)CC1 [I-N-230, 2-amino-6-fluoro-N-(4-(4-(2-oxopyrrolidin-1-yl)piperidin-1-yl)pyridin-3-yl)pyrazolo[1,5-a]pyrimidine-3-carboxamide] | +++ (Compounds with a Cisplatin sensitization value of <0.02 μM are marked with “+++.”)
17 | CC1(N2CCN(C(=O)C3CCN(c4c(F)cncc4NC(=O)c4c(N)nn5cc(F)cnc45)CC3)CC2)COC1 [I-G-92, 2-amino-6-fluoro-N-(5-fluoro-4-(4-(4-(3-methyloxetan-3-yl)piperazine-1-carbonyl)piperidin-1-yl)pyridin-3-yl)pyrazolo[1,5-a]pyrimidine-3-carboxamide] | +++ (Compounds with a Cisplatin sensitization value of <0.02 μM are marked with “+++.”)
18 | Nc1nn2cc(Cl)cnc2c1C(=O)Nc1cnccc1N1CCC(N2CC[C@H](F)C2)CC1 [I-N-103, (S)-2-amino-6-chloro-N-(4-(4-(3-fluoropyrrolidin-1-yl)piperidin-1-yl)pyridin-3-yl)pyrazolo[1,5-a]pyrimidine-3-carboxamide] | +++ (Compounds with a Cisplatin sensitization value of <0.02 μM are marked with “+++.”)
19 | COc1ccncc1NC(=O)c1c(N)nn2cc(Cl)cnc12 [I-O-57, 2-amino-6-chloro-N-(4-methoxypyridin-3-yl)pyrazolo[1,5-a]pyrimidine-3-carboxamide] | +++ (Compounds with a Cisplatin sensitization value of <0.02 μM are marked with “+++.”)
